According to BindingDB's records for doi:10.1016/s0960-894x(00)00478-9 (Laval University, 2001):

Experiments:
[1] = target: Glutamine--tRNA ligase (Escherichia coli) (UniProt P00962); assay: The compound was evaluated for inhibition of Glutaminyl-tRNA synthetase for Escherichia coli with respect to ATP.
[2] = The compound was evaluated for inhibition of Glutaminyl-tRNA synthetase with respect to glutamine.

Glutamine--tRNA ligase (Escherichia coli), sequence (P00962 whole entry, looked up): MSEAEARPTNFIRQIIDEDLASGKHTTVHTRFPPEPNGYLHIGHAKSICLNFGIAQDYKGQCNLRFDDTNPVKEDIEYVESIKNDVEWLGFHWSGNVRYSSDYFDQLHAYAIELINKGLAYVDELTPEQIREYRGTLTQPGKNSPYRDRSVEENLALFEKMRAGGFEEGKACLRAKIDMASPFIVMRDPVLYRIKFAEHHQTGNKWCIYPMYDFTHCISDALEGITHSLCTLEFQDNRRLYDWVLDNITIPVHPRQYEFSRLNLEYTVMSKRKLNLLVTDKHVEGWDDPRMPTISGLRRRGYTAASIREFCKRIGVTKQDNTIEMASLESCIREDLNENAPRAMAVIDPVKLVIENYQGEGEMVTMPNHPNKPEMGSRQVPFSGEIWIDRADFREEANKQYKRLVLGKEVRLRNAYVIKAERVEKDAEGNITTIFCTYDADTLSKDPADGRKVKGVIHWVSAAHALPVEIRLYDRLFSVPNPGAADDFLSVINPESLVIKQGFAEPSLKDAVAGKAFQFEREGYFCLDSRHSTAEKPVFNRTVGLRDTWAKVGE

SMILES: NC(=O)CCC(N)COP(=O)(O)OC[C@H]1OC(n2cnc3c(N)ncnc32)[C@H](O)[C@@H]1O (some centres not stated)
- Ki [1]: 860 nM
- Ki [2]: 280 nM
